Patent US12653809B2, “Urea, amide, and substituted heteroaryl compounds for CBL-B inhibition” (Nurix Therapeutics, Inc., priority 2019, dated 2026)

Key:
Cbl-b [1] = biological target: T1, Cbl-b (truncated variant, UniProt number Q13191) (Homo sapiens, UniProt Q13191); assay: Cbl-b displacement assay (Cbl-b inhibition assay, fluorophore-labeled probe); format: binding
T1 construct: made in house
Text: As described in Biological Example 1A, a Cbl-b activity assay (Cbl-b inhibition assay) used to measure the IC50 values for Cbl-b inhibition uses a mixture comprising candidate compound, Cbl-b (truncated, with an Avitag, and biotinylated), a fluorescently-labeled E2 enzyme UbcH5B labelled with ubiquitin conjugated to BODIPY-fluorescein (UbcH5B-Ub), streptavidin-terbium, and assay buffer. In one embodiment, the Cbl-b activity assay (Cbl-b inhibition assay) used to measure IC50 for inhibition of Cbl-b uses the conditions described in Biological Example 1A with 12 nM Cbl-b. […] In another embodiment, the Cbl-b activity assay (Cbl-b inhibition assay) used to measure IC50 for inhibition of Cbl-b uses the conditions described in Biological Example 1B, with candidate compound, 0.125 nM Cbl-b (truncated, with an avitag, and biotinylated), fluorescently labelled inhibitor probe, and assay buffer. Displacement of the inhibitor probe indicates Cbl-b activity.
Candidate compounds were evaluated for their ability to bind and inhibit Cbl-b, an E3 ubiquitin-protein ligase, as evidenced by their ability to displace a fluorophore-labeled probe (Example 168) bound to Cbl-b.
The ability of candidate compounds to displace a known inhibitor and thereby inhibit Cbl-b activity was measured by monitoring the interaction of Cbl-b with a fluorophore-labeled probe in the presence of the candidate compound. A truncated variant of Cbl-b (UniProt number Q13191; SEQ ID NO:1) containing an Avitag at its N-terminus was co-expressed with BirA biotin ligase and purified using a standard protocol (see Dou et al., Nature Structural and Molecular Biology, 8: 982-987, 2013; Avidity LLC).
Fluorescently-labeled inhibitor probe was synthesized and tagged with BODIPY FL (Example 168). Cbl-b displacement assays were performed in a 384-well plate at room temperature in a 10 μL reaction volume by pre-incubating 0.125 nM Cbl-b (final concentration) in an assay buffer containing 20 mM HEPES pH 7.5, 150 mM NaCl, 0.01% Triton X-100, 0.01% BSA, and 0.5 mM TCEP in the presence of a candidate compound in 1% DMSO (final concentration) for one hour. After incubation in the presence of the candidate compound, the plate was incubated for an additional one hour in the presence of an approximate EC40 binding saturation consisting of 150 nM fluorescently-labeled inhibitor probe and 2 nM Streptavidin-Terbium (Cisbio) (final concentrations). Following the one hour incubation, the plates were read for TR-FRET signal at 520/620 nm using an Envision plate reader (Perkin Elmer).
Compounds were ranked into bins A through D as follows for IC50: A indicates <0.1 μM, B indicates 0.1 μM≤IC50<1 μM, C indicates 1 μM≤IC50<5 μM, and D indicates 5 μM≤IC50.

Cbl-b [2] = biological target: T1, Cbl-b; assay: Cbl-b activity assay (TR-FRET, interaction of Cbl-b with UbcH5B-Ub); format: biochemical
[3] = Biological Example 1B, read-out: IC50 values in the Cbl-b inhibition assay of Biological Example 1B
[4] = displacement assay, 0.125 nM Cbl-b, 150 nM fluorescently-labeled inhibitor probe, read-out: Cbl-b activity IC50
[5] = high conditions: 100 mM NaCl, 60 nM Src kinase, 12 nM Cbl-b, read-out: Cbl-b activity IC50

T1 sequence (Q13191 36-427): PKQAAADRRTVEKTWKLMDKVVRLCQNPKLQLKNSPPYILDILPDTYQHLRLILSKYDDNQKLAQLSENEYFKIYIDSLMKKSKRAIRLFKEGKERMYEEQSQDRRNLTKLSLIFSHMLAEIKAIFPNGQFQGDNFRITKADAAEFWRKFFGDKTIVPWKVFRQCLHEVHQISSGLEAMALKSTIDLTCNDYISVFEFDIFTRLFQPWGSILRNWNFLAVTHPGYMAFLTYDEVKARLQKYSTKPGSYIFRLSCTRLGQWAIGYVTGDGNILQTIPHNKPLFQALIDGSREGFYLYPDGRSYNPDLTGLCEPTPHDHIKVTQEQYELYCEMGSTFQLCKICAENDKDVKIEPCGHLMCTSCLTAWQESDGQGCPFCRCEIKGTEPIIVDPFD

Structure (SMILES)	IC50 (Cbl-b [2]; [5]) [µM]	other results
Cn1cnnc1CC1(c2cccc(-c3n[nH]c4c(CN5CC[C@H](F)C5)cc(C(F)(F)F)nc34)c2)COC1 [Example 114, (S)-7-((3-fluoropyrrolidin-1-yl)methyl)-3-(3-(3-((4-methyl-4H-1,2,4-triazol-3-yl)methyl)oxetan-3-yl)phenyl)-5-(trifluoromethyl)-1H-pyrazolo[4,3-b]pyridine]		IC50 (Cbl-b [1]; [3]): < 0.1 µM; IC50 (Cbl-b [1]; [4]): < 0.1 µM
Cn1cnnc1[C@@H](c1cccc(-c2n[nH]c3c(CN4CC[C@H](F)C4)cc(C(F)(F)F)nc23)c1)C1CCC1 [Example 115, 3-(3-((R)-cyclobutyl(4-methyl-4H-1,2,4-triazol-3-yl)methyl)phenyl)-7-(((S)-3-fluoropyrrolidin-1-yl)methyl)-5-(trifluoromethyl)-1H-pyrazolo[4,3-b]pyridine]		IC50 (Cbl-b [1]; [3]): < 0.1 µM; IC50 (Cbl-b [1]; [4]): < 0.1 µM
C[C@H](Sc1nncn1C)c1cccc(NC(=O)NC2CCCN(C)C2)c1 (stereo partly drawn) [Example 159, 1-(3-((S)-1-((4-methyl-4H-1,2,4-triazol-3-yl)thio)ethyl)phenyl)-3-(1-methylpiperidin-3-yl)urea]	≥ 5	
C[C@H](Sc1nncn1C)c1cccc(NC(=O)NC2CCCCC2)c1 [Example 161, (S)-1-cyclohexyl-3-(3-(1-((4-methyl-4H-1,2,4-triazol-3-yl)thio)ethyl)phenyl)urea]	≥ 5	
CC(=O)N1CCN(C(=O)Nc2cccc([C@H](C)Sc3nncn3C)c2)CC1 [Example 162, (S)-4-acetyl-N-(3-(1-(4-methyl-4H-1,2,4-triazol-3-ylthio)ethyl)phenyl)piperazine-1-carboxamide]	≥ 5	
CNS(=O)(=O)c1ccc(NC(=O)Nc2cccc([C@H](C)Sc3nncn3C)c2)cc1 [Example 163, (S)—N-methyl-4-(3-(3-(1-((4-methyl-4H-1,2,4-triazol-3-yl)thio)ethyl)phenyl)ureido)benzenesulfonamide]	≥ 5	
C[C@H](Sc1nncn1C)c1cccc(NC(=O)N2CCS(=O)(=O)CC2)c1 [Example 165, (S)—N-(3-(1-((4-methyl-4H-1,2,4-triazol-3-yl)thio)ethyl)phenyl)thiomorpholine-4-carboxamide 1,1-dioxide]	≥ 5	
CC(Sc1nncn1C)c1cccc(-n2cc(-c3ccccc3)nn2)c1 (centres unmarked) [Example 167, 1-(3-(1-((4-methyl-4H-1,2,4-triazol-3-yl)thio)ethyl)phenyl)-4-phenyl-1H-1,2,3-triazole]	1 to 5	IC50 (Cbl-b [2]; Biological Example 1A, low or high conditions not stated, read-out: IC50 values in the Cbl-b inhibition assay of Biological Example 1A): 1 to 5 µM

The next lines start with results.

IC50 (Cbl-b [2]; [5]) [µM]	Structure (SMILES)	other results
≥ 5	CC(=O)N1CCC2(CCN(C(=O)Nc3cccc([C@H](C)Sc4nncn4C)c3)CC2)C1 [Example 160, (S)-2-acetyl-N-(3-(1-((4-methyl-4H-1,2,4-triazol-3-yl)thio)ethyl)phenyl)-2,8-diazaspiro[4.5]decane-8-carboxamide]	
≥ 5	C[C@H](Sc1nncn1C)c1cccc(NC(=O)N2CCC2)c1 [Example 164, (S)—N-(3-(1-(4-methyl-4H-1,2,4-triazol-3-ylthio)ethyl)phenyl)azetidine-1-carboxamide]	
≥ 5	Cn1cnnc1[C@H]1C[C@H]1c1cccc(NC(=O)N2CCOc3cccnc32)c1 [Example 166, N-(3-((1R,2S)-2-(4-methyl-4H-1,2,4-triazol-3-yl)cyclopropyl)phenyl)-2,3-dihydro-4H-pyrido[3,2-b][1,4]oxazine-4-carboxamide]	
